The source of these data is patent US20060269631A1, “Morinda citrifolia-based formulation for inhibiting metastasis of carcinogenic cells” (priority 2003, published 2006).

The test system of data set [1] is B16-F0 murine melanoma cells. In words: in vivo metastasis test, syngeneic tumor metastasis model of melanoma B16-F0 cells in C57BL/6J mice. As to conditions: for % Inhibition: vs vehicle control. The method, then: An in vivo metastasis test was performed, wherein groups of 6 (positive control), 6 (Morinda citrifolia-PPT test group), and 9 (vehicle control) immunocompetent (6-8 weeks old), pathogen-free (SPF) C57BL/6 male mice were used in this study and bred in animal isolator (IVC racks) under specific pathogens free (SPF) condition at 23±1° C. Viable B16F0 murine melanoma cells (ATCC CRL-6322, 6×10^4 in 0.2 mL) were inoculated into experimental mice intravenously, via tail vein. Mice were administered the Morinda citrifolia-PPT, 1% in drinking water ad libitum, for one week prior to tumor cell implantation and three weeks afterwards. Additionally, 0.8 mg Morinda citrifolia-PPT/mouse was injected intraperitoneally (IP) for 21 consecutive days following tumor cell implantation. Concurrently, the reference agent, mitomycin, was administrated IP at 1 mg/Kg twice per week for six doses after tumor cell implantation.
(§1) In the vehicle control group, the distilled water was administrated at 10 ml/Kg IP for three consecutive weeks. The body weight for all mice was recorded at day 1, day 8, day 15, and day 22 following tumor cell implantation. The lungs were excised and fixed 21 days after tumor inoculation. Metastatic nodules on the lung surface were then counted under a dissecting microscope. The student's t test was used to determine the statistical difference between the groups of treatment and vehicle control groups in a statistic analysis.
Relating to the Table 1 above, viable B16-F0 murine melanoma cells were inoculated into C57B1/6J mice. Mice were administered ad libitum 1% Morinda citrifolia-PPT one week prior to the implantation and throughout the experiment. […] distilled water (vehicle control), 0.8 mg/m and 4 mg/mouse of Morinda citrifolia-PPT were injected I.P. into mice for 21 consecutive days following the inoculation. Mitomycin was used as a positive control and injected twice a week at 1 mg/Kg for a total of six doses. The lungs were excised and fixed at the end of experiment and the metastasis nodules on the lung surface were counted under a dissecting microscope. The test was used to determine the significant difference between the groups of treatment and vehicle control. (SEM=standard error of mean; ^b p<0.006; ^c p<0.005.)
In the syngeneic tumor metastasis model of melanoma B16-F0 cells in C57BL/6J mice, MDA-4 was administered at 1% (10 mg/ml) by a drinking method for one week for pre-treatment, and for three weeks after the tumor cells were implanted, during the study and throughout the experiment for a total of 28 treatments. Additionally, MDA-4 at a dose of 0.8 mg/mouse was administered intraperitoneally (IP) daily for a total of 21 consecutive days after tumor cells were implanted in the mice.
During the experiment, the test substance MDA-4 was provided by Morinda, Inc. and used for in vivo anti-metastasis studies. MDA-4 was dissolved in sterile distilled water and, as stated, administrated with 1% (10 mg/ml) drinking method for one week pre-treatment, and three week after tumor cells were implanted during the study throughout the experiment for a total of 28 treatments. Additionally, as stated, MDA-4 at dose of 0.8 mg/mouse was administrated intraperitoneally (IP) daily for a total of 21 consecutive days after tumor cells implanted.
The murine melanoma cell line, B16-F0 (ATCC CRL-6322), was purchased from American Type Culture Collection and Dulbecco's Modified Eale's medium, 90% with Fetal Bovine Serum, 10% was used as culture medium. The tumor cells were incubated in an atmosphere containing 5% CO2 at 37° C. The medium was supplemented with 1% Antibiotic-Antimycotic.
Specific pathogen-free male C57BL/6J mice at 6-8 weeks of age, weighing 24-28 gms were provided by National Taiwan University Animal Center. The animals were housed in Individually Ventilated Cages Racks (IVC Racks, 36 Mini Isolator System) under Specific Pathogen-Free (SPF) conditions throughout the experiment. […]

A short description of data set [2]: body weight post-implantation and toxic symptoms in the metastasis study. Type of data set: in vivo, mice. The method, then:
as §1

The subject of data set [3] is NRK 2 cells, fibronectin-coated well. In words: adhesion of NRK 2 cells to a fibronectin-coated well. Type of data set: cell-based, rat. The method, then: One assay measured the adhesion of NRK 2 (normal rat kidney cell, ATCC CRL-6509) cells to a fibronectin-coated well. Morinda citrifolia-PPT, the 0.1 N NaCl Morinda citrifolia-PPT fraction, GRGDSP peptide (SIGMA), and 0.4% DMSO (SIGMA, vehicle control) in modified MEM-HEPES buffer pH 7.4 (Hyclone) were incubated in separate wells for 30 minutes at 37° C. The reaction was initiated by addition of NRK 2 cells (2×10^6/ml) and run for 30 minutes. Each well was then washed 6 times with Dulbecco's PBS (Hyclone) followed by addition of 5 μM calcein AM (SIGMA) and a further 2 hour incubation period. Quantitation of fluorescent intensity, resulting from interaction of calcein AM with cells attached to the fibronectin coated plate, was read by a SpectrFluor Plus plate reader (AG Flwith excitation at 485 nm and emission at 535 nm.
Relating to Table 3, NRK 2 cells were used to adhere to fibronectin-coated wells. Quantitation of fluorescent intensity resulting from interaction of calcein AM with cells attached to the fibronectin coated plate was read by a SpectrFluor Plus plate reader.

Data set [4] concerns Lu-ECAM-1. As to conditions: among a series of carbohydrates; cited from earlier work.
For data set [5], the system named is L-1 sarcoma cells. Particulars: in vivo; cited from earlier work.
The mark [6] stands for this setting: individual mouse, R = diameter of nodule.

Several values for one entry are separate records, joined by “and”; a condition that tells them apart may be missing. Identical values can stand only once. Marks after values point to notes of the source that are not given here.

As for `CO[C@@]12[C@H](COC(N)=O)C3=C(C(=O)C(C)=C(N)C3=O)N1C[C@@H]1N[C@@H]12` [Mitomycin], in data set [1] (PPT at 0.8 mg/mouse combined with free drinking, mitomycin at 1 mg/Kg), the metastasis inhibition worked out at 55%. The “% Inhibition” value in data set [1] (Table 1, PPT 0.8 mg/mouse, mitomycin 1 mg/Kg) is given as 60%^c. The “No. of Metastastic Nodules in the Lung” value in data set [1] (Table 4, mean ± SEM, MDA-4 drinking 1% x28 & IP 0.8 mg/mouse x21, mitomycin IP 1 mg/kg x6) stood at 22 ± 2. Further, in data set [1] (Table 4, vs vehicle, MDA-4 drinking 1% x28 & IP 0.8 mg/mouse x21, mitomycin IP 1 mg/kg x6), the “% Inh.” value is 55%. Also, the “No. of Metastastic Nodules in the Lung, Total Nodules, X ± SEM” value in data set [1] (Table 5, group mean) came out at 22 ± 2. Besides, the “No. of Metastastic Nodules in the Lung, Total Nodules” value in data set [1] (Table 5, individual mouse) was 23 and 24 and 19. Besides, the “% Inhibition” value in data set [1] (Table 5, MDA-4 drinking 1% x28 & IP 0.8 mg/mouse x21, mitomycin IP 1 mg/kg x6) stood at 55%. Moreover, in data set [1] (setting [6]), the “No. of Metastastic Nodules in the Lung, 1 mm<” value was 6 and 7 and 4; the “No. of Metastastic Nodules in the Lung, R < 1 mm” value was 16 and 17 and 15; the “No. of Metastastic Nodules in the Lung, R > 2 mm” value is 1 and 0 (2×). Moreover, the “No. of Metastasis Nodules in the Lung” value in data set [1] (individual mouse, lungs excised 21 days after inoculation, PPT 0.8 mg/mouse IP x21 + 1% in drinking water, mitomycin 1 mg/Kg IP x6) is 23 and 24 and 19. In addition, in data set [2] (group mean), the “Body Weight of Post-Implantation, Day 1, Mean ± SEM” value was found to be 27.7 ± 0.9 g; the “Body Weight of Post-Implantation, Day 8, Mean ± SEM” value was found to be 28.0 ± 0.6 g; the “Body Weight of Post-Implantation, Day 15, Mean ± SEM” value came to 27.3 ± 0.9 g; the “Body Weight of Post-Implantation, Day 22, Mean ± SEM” value came out at 27.3 ± 0.9 g. Moreover, in data set [2] (in words), the “body weight change compared to the vehicle control group” value is reported as “no body weight increase”. Further, in data set [2] (individual mouse), the “Body Weight of Post-Implantation, Day 1” value is 28 g and 29 g and 26 g; the “Body Weight of Post-Implantation, Day 8” value was 28 g and 29 g and 27 g; the “Body Weight of Post-Implantation, Day 15” value is 27 g and 29 g and 26 g; the “Body Weight of Post-Implantation, Day 22” value is 27 g and 29 g and 26 g.

Turning to GRGDSP peptide, the “Percentage adhesion inhibition, fibronectin mediated” value is listed as 16 in data set [3] (Conc. 31.25 μg/ml); 22 in data set [3] (Conc. 62.5 μg/ml); 43 in data set [3] (Conc. 125 μg/ml); 78 in data set [3] (Conc. 250 μg/ml); 98 in data set [3] (Conc. 500 μg/ml).

Regarding `CC(=O)NC1C(OC2C(O)C(CO)OC(OC3C(CO)OC(O)C(O)C3O)C2O)OC(CO)C(O)C1OC1OC(CO)C(O)C(O)C1OC1OC(C)C(O)C(O)C1O` (stereo not shown) [Lacto-N-fucopentose I], the “blocking of adhesion of B16-F10 to Lu-ECAM-1” value in data set [4] was “most effectively blocked adhesion”.

`O=C[C@H](O)[C@@H](O)[C@@H](O)[C@H](O)CO` [D-galactose]: in data set [5], the “inhibition of liver metastasis” value is given as “inhibit”.

Regarding arabinogalctose, in data set [5], the “inhibition of liver metastasis” value was “inhibit”.
